Assay results reported in publication PMC9143880, “Improving Antimicrobial Activity and Physico-Chemical Properties by Isosteric Replacement of 2-Aminothiazole with 2-Aminooxazole” (Pharmaceuticals, 2022).
Values after ≈ are worked out from the molar mass of the structure shown. Read-outs that look alike come from different tables or passages of the source.

How the values were obtained:
[1] = tested on: Candida parapsilosis CCM 8260 (ATCC 22019); experiment: Antifungal microdilution broth (EUCAST); details: Lodderomyces parapsilosis
[2] = tested on: Enterococcus faecalis CCM 4224 (ATCC 29212); experiment: Antibacterial microdilution broth (EUCAST); type: cell-based; details: Enterococcus faecalis; 24h incubation; read-out: MIC EF
[3] = tested on: Trichophyton interdigitale CCM 8377 (ATCC 9533); experiment: Antifungal microdilution broth (EUCAST); details: Trichophyton interdigitale
[4] = tested on: M. kansasii DSM 44162 (ATCC 12478); experiment: Antimycobacterial MIC, microdilution broth / resazurin; type: cell-based; details: Mycobacterium kansasii; resazurin after 96 h; read-out: MIC M. kansasii
[5] = tested on: Staphylococcus epidermidis CCM 4418 (ATCC 12228); experiment: Antibacterial microdilution broth (EUCAST); type: cell-based; details: Staphylococcus epidermidis; 24h incubation; read-out: MIC SE
[6] = tested on: Aspergillus flavus CCM 8363; experiment: Antifungal microdilution broth (EUCAST); details: Aspergillus flavus
[7] = tested on: Escherichia coli CCM 3954 (ATCC 25922); experiment: Antibacterial microdilution broth (EUCAST); type: cell-based; details: Escherichia coli; 24h incubation; read-out: MIC EC
[8] = tested on: Candida krusei CCM 8271 (ATCC 6258); experiment: Antifungal microdilution broth (EUCAST); details: Pichia kudriavzevii; for MIC: 24 h
[9] = tested on: Acinetobacter baumannii DSM 30007 (ATCC 19606); experiment: Antibacterial microdilution broth (EUCAST); type: cell-based; details: Acinetobacter baumannii; 24h incubation; read-out: MIC AB
[10] = tested on: M. aurum DSM 43999 (ATCC 23366); experiment: Antimycobacterial MIC, microdilution broth / resazurin; type: cell-based; details: Mycolicibacterium aurum, read-out: MIC M. aurum
[11] = tested on: Candida albicans CCM 8320 (ATCC 24433); experiment: Antifungal microdilution broth (EUCAST); details: Candida albicans; for MIC: 24 h
[12] = tested on: Staphylococcus aureus subsp. aureus (MRSA) CCM 4750 (ATCC 43300); experiment: Antibacterial microdilution broth (EUCAST); type: cell-based; details: Staphylococcus aureus; 24h incubation; read-out: MIC MRSA
[13] = tested on: Aspergillus fumigatus ATCC 204305; experiment: Antifungal microdilution broth (EUCAST); details: Aspergillus fumigatus
[14] = tested on: Mycobacterium tuberculosis H37Ra ITM-M006710 (ATCC 9431); experiment: Antimycobacterial MIC, microdilution broth / Alamar Blue (resazurin); type: cell-based; details: Mycobacterium tuberculosis, 120 h, Middlebrook 7H9, resazurin after 120 h; read-out: Mtb H37Ra MIC
[15] = tested on: M. smegmatis DSM 43465 (ATCC 607); experiment: Antimycobacterial MIC, microdilution broth / resazurin; type: cell-based; details: Mycolicibacterium smegmatis; resazurin after 48 h; read-out: MIC M. smegmatis
[16] = tested on: Lichtheimia corymbifera CCM 8077; experiment: Antifungal microdilution broth (EUCAST); details: Lichtheimia corymbifera
[17] = tested on: Candida tropicalis CCM 8264 (ATCC 750); experiment: Antifungal microdilution broth (EUCAST); details: Candida tropicalis; for MIC: 24 h
[18] = tested on: Pseudomonas aeruginosa CCM 3955 (ATCC 27853); experiment: Antibacterial microdilution broth (EUCAST); type: cell-based; details: Pseudomonas aeruginosa; 72h incubation; read-out: MIC PA
[19] = RP-UHPLC lipophilicity parameter log k’w; type: physicochemical; details: for log k’w: RP-UHPLC, acetonitrile/water, log k extrapolated to 0% acetonitrile; for logkw: experimental lipophilicity parameter
From the text: Lipophilicity and water solubility of the drug candidates are important parameters as they are often directly related to their ADME properties in the organism. Lipophilicity is usually expressed as the logarithm of the partition coefficient in n-octanol/water (log P). Due to its laborious determination, especially in the HTS screening, other experimental methods such as RP-HPLC log k’w or purely computational approaches such as Clog P were proposed and have been established as reasonable estimators of true lipophilicity. To investigate the changes in lipophilicity upon introduction of oxazole in the title compounds, we determined the log k’w of all derivatives and compared respective values among the pairs.
The log k of the synthesized compounds was measured using the same instrument (single measurement per concentration), software, and column as was used in the purity evaluation. Working solutions were diluted as described above for purity determination. The log k parameter was calculated after the UHPLC measurements using isocratic mode with mobile phase acetonitrile (B)/water (A) in a set of concentrations of 40, 45, 50% and 20, 30, 40% B for subtype I and subtype II, respectively.

[20] = tested on: M. avium DSM 44156 (ATCC 25291); experiment: Antimycobacterial MIC, microdilution broth / resazurin; type: cell-based, Mycobacterium avium; details: Mycobacterium avium; resazurin after 96 h; read-out: MIC M. avium
[21] = tested on: Staphylococcus aureus subsp. aureus CCM 4223 (ATCC 29213); experiment: Antibacterial microdilution broth (EUCAST); type: cell-based; details: Staphylococcus aureus; 24h incubation; read-out: MIC SA
HepG2 cells = experiment: HepG2 cytotoxicity screening (CellTiter 96); type: cell-based, human; details: Homo sapiens, HepG2, 24 h, 24 h incubation, CellTiter 96; * above highest tested concentration; ** limited by insolubility in medium
[22] = CCM8363, 24 h, read-out: MIC AFla
[23] = ATCC204305, 24 h, read-out: MIC AF
[24] = CCM8077, 24 h, read-out: MIC LC
[25] = ATCC22019|CCM8260, 24 h, read-out: MIC (visual detection)
[26] = ATCC9533|CCM8377, 48 h, read-out: MIC (visual detection)
[27] = CCM8363, 48 h, read-out: MIC (visual detection)
[28] = read-out: MIC (visual detection)
[29] = ATCC204305, 48 h, read-out: MIC (visual detection)
[30] = CCM8077, 48 h, read-out: MIC (visual detection)

SMILES	MIC ([1]; 24 h, read-out: MIC CP)	MIC [2]	MIC ([3]; 72 h, read-out: MIC TI)	melting point	MIC [5]	MIC [6, 22]	MIC [7]	MIC ([8]; read-out: MIC CK)	MIC [9]	MIC ([11]; read-out: MIC CA)	MIC [12]	MIC [13, 23]	MIC [14]	MIC [15]	MIC [16, 24]	MIC ([17]; read-out: MIC CT)	MIC [18]	log k’w [19]	logkw [19]	MIC [21]	also measured
O=C(Nc1nc(-c2ccccc2)cs1)c1cnc2ccccc2n1 [Compound 19a]	> 125 µM	> 250 µM	> 125 µM	217 to 219 °C	> 250 µM	> 125 µM	> 250 µM	> 125 µM	> 250 µM	> 125 µM	> 250 µM	> 125 µM	≥ 500 µg/mL	≥ 500 µg/mL	> 125 µM	> 125 µM	> 250 µM	3.583	3.583	> 250 µM	MIC [4]: ≥ 500 µg/mL; MIC ([10]; resazurin after 72 h): ≥ 500 µg/mL; MIC [20]: ≥ 500 µg/mL
C[C@@H](c1ncncc1F)[C@](O)(Cn1cncn1)c1ccc(F)cc1F [voriconazole, reference compound]	–	–	–	–	–	–	–	–	–	–	–	–	–	–	–	–	–	–	–	–	IC50 ([1]; ATCC22019|CCM8260, 24 h, read-out: IC50 (spectrophotometric detection)): 0.03 µg/mL (≈ 0.0859 µM); MIC [1, 25]: > 16 µg/mL; IC50 ([3]; ATCC9533|CCM8377, 48 h, read-out: IC50 (spectrophotometric detection)): 1 µg/mL (≈ 2.86 µM); MIC [3, 26]: > 16 µg/mL; IC50 ([6]; CCM8363, 48 h, read-out: IC50 (spectrophotometric detection)): 1 µg/mL (≈ 2.86 µM); MIC [6, 27]: > 16 µg/mL; MIC [8, 28]: > 16 µg/mL; MIC [11, 28]: > 16 µg/mL; IC50 ([11]; ATCC24433|CCM8320, 24 h, read-out: IC50 (spectrophotometric detection)): 0.03 µg/mL (≈ 0.0859 µM); IC50 ([13]; ATCC204305, 48 h, read-out: IC50 (spectrophotometric detection)): 0.25 µg/mL (≈ 0.716 µM); MIC [13, 29]: 1 µg/mL; IC50 ([16]; CCM8077, 48 h, read-out: IC50 (spectrophotometric detection)): 8 µg/mL (≈ 22.9 µM); MIC [16, 30]: > 16 µg/mL; MIC [17, 28]: > 16 µg/mL
C[C@@H]1[C@H](O)[C@@H](C)/C=C/C=C/C=C/C=C/C=C/C=C/C=C/[C@H](O[C@@H]2O[C@H](C)[C@@H](O)[C@H](N)[C@@H]2O)C[C@@H]2O[C@](O)(C[C@@H](O)C[C@@H](O)[C@H](O)CC[C@@H](O)C[C@@H](O)CC(=O)O[C@H]1C)C[C@H](O)[C@H]2C(=O)O [amphotericin B, reference compound]	–	–	–	–	–	–	–	–	–	–	–	–	–	–	–	–	–	–	–	–	IC90 ([1]; ATCC22019|CCM8260, 24 h, read-out: IC90 (spectrophotometric detection)): 0.5 µg/mL (≈ 0.541 µM); MIC [1, 25]: 0.5 µg/mL; IC90 ([3]; ATCC9533|CCM8377, 48 h, read-out: IC90 (spectrophotometric detection)): 1 µg/mL (≈ 1.08 µM); MIC [3, 26]: 1 µg/mL; IC90 ([6]; CCM8363, 48 h, read-out: IC90 (spectrophotometric detection)): 4 µg/mL (≈ 4.33 µM); MIC [6, 27]: 4 µg/mL; MIC [8, 28]: 1 µg/mL; IC90 ([8]; ATCC6258|CCM8271, 24 h, read-out: IC90 (spectrophotometric detection)): 1 µg/mL (≈ 1.08 µM); MIC [11, 28]: 1 µg/mL; IC90 ([11]; ATCC24433|CCM8320, 24 h, read-out: IC90 (spectrophotometric detection)): 1 µg/mL (≈ 1.08 µM); IC90 ([13]; ATCC204305, 48 h, read-out: IC90 (spectrophotometric detection)): 4 µg/mL (≈ 4.33 µM); MIC [13, 29]: 4 µg/mL; IC90 ([16]; CCM8077, 48 h, read-out: IC90 (spectrophotometric detection)): 1 µg/mL (≈ 1.08 µM); MIC [16, 30]: 1 µg/mL; MIC [17, 28]: 1 µg/mL; IC90 ([17]; ATCC750|CCM8264, 24 h, read-out: IC90 (spectrophotometric detection)): 1 µg/mL (≈ 1.08 µM)
O=C(Nc1ncco1)c1ccccn1 [Compound 1b]	> 500 µM	> 500 µM	> 500 µM	129 to 131 °C	125 µM (≈ 23.6 µg/mL)	> 500 µM	> 500 µM	> 500 µM	> 500 µM	> 500 µM	250 µM (≈ 47.3 µg/mL)	> 500 µM	62.5 µg/mL (≈ 330 µM)	125 µg/mL (≈ 661 µM)	> 500 µM	> 500 µM	> 500 µM	0.854	0.8542	125 µM (≈ 23.6 µg/mL)	IC50 (HepG2 cells): > 1000 µM; MIC ([10]; resazurin after 72 h): 31.2 µg/mL (≈ 165 µM)
O=C(Nc1nccs1)c1cnccn1 [Compound 8a]	> 500 µM	> 500 µM	> 500 µM	–	500 µM (≈ 103 µg/mL)	> 500 µM	> 500 µM	> 500 µM	> 500 µM	> 500 µM	> 500 µM	> 500 µM	62.5 µg/mL (≈ 303 µM)	≥ 500 µg/mL	> 500 µM	> 500 µM	> 500 µM	1.222	1.222	> 500 µM	MIC [4]: 31.2 µg/mL (≈ 152 µM); MIC ([10]; resazurin after 72 h): 125 µg/mL (≈ 606 µM); MIC [20]: 250 µg/mL (≈ 1210 µM)
O=C(Nc1ncco1)c1ccncc1 [Compound 3b]	> 500 µM	> 500 µM	500 µM	175 to 177 °C	500 µM (≈ 94.6 µg/mL)	> 500 µM	> 500 µM	500 µM	> 500 µM	500 µM	500 µM (≈ 94.6 µg/mL)	> 500 µM	15.6 µg/mL (≈ 82.6 µM)	62.5 µg/mL (≈ 330 µM)	500 µM	> 500 µM	> 500 µM	0.396	0.3955	250 µM (≈ 47.3 µg/mL)	IC50 (HepG2 cells): > 1000 µM; MIC ([10]; 72 h): 15.6 µg/mL (≈ 82.6 µM)
O=C(Nc1nc(-c2ccccc2)co1)c1ccncc1 [Compound 13b]	> 500 µM	> 500 µM	500 µM	168 to 171 °C	125 µM (≈ 33.2 µg/mL)	> 500 µM	> 500 µM	> 500 µM	> 500 µM	> 500 µM	> 500 µM	> 500 µM	31.2 µg/mL (≈ 118 µM)	125 µg/mL (≈ 471 µM)	> 500 µM	> 500 µM	> 500 µM	1.163	1.163	500 µM (≈ 133 µg/mL)	IC50 (HepG2 cells): 879 µM; MIC ([10]; 72 h): 31.2 µg/mL (≈ 118 µM)
O=C(Nc1ncco1)c1cnc2ccccc2n1 [Compound 10b]	500 µM	> 500 µM	250 µM	163 to 165 °C	500 µM (≈ 120 µg/mL)	> 500 µM	> 500 µM	250 µM	> 500 µM	500 µM	> 500 µM	500 µM	15.6 µg/mL (≈ 65 µM)	62.5 µg/mL (≈ 260 µM)	500 µM	500 µM	> 500 µM	1.493	1.493	500 µM (≈ 120 µg/mL)	IC50 (HepG2 cells): > 1000 µM; MIC ([10]; 72 h): 15.6 µg/mL (≈ 65 µM)
